One experiment concerns the target T1, human GRα protein (Homo sapiens, UniProt P04150).
T1 construct: made in house; host or cells: insect cells infected with baculovirus; cytoplasm fraction used
T1 sequence (P04150 1-777): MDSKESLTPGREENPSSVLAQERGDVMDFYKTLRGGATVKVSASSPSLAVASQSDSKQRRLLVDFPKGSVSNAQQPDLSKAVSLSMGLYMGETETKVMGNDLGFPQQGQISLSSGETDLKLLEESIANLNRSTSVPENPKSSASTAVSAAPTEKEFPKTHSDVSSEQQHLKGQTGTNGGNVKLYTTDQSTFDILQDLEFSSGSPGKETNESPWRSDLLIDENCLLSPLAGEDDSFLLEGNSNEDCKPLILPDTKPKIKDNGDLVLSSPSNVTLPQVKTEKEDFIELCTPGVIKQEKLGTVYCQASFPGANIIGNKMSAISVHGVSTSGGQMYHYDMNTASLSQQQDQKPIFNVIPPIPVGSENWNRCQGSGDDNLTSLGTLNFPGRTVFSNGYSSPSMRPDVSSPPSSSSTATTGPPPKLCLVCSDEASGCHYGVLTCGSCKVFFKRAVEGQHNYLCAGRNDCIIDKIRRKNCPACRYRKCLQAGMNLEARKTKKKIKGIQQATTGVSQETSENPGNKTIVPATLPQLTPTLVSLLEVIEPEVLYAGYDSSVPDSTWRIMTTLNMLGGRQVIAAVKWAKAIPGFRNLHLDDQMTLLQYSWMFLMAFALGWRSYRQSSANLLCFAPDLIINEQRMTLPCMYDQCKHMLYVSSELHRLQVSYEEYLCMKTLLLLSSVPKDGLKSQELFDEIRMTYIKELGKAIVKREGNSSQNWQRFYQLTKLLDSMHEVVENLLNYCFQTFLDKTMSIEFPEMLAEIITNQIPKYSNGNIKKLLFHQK
Nature of the experiment: Binding inhibitory assay (displacement of 3H-dexamethasone from the cytoplasm fraction of baculovirus-infected insect cells). The settings on record: 100 nM test compound; 3H-Dex; NSB with 10 μM dexamethasone; read-out: Binding Inhibitory ratio (%) of 100 nM of test compound. The essentials: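 Cytosol from baculovirus-infected insect cells expressing human GRα incubated with compound and 10 nM ³H-dexamethasone solution in Tris/EDTA/glycerol/DTT/molybdate buffer, pH 7.6, 1% DMSO, 16–20 h at 4 °C. Free ligand removed with dextran-coated charcoal, supernatant counted; NSB from 10 μM dexamethasone, inhibition % vs DMSO, duplicates.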
(Loss of bound radioactivity is the signal in a displacement assay; it reports binding, not function.)

In the next experiment the test system is H4-III-E cells. Nature of the experiment: TAT (tyrosine aminotransferase) assay. The settings on record: for Agonistic activity of 10 μM test compound / activation at 10 µM: 10 μM test compound alone, relative to maximum Dex-induced TAT activity (100%); for Antagonistic activity of 10 μM test compound: 10 μM test compound together with 0.005 μM dexamethasone, inhibitory ratio against TAT activity increase by Dex; for activation at 10 µM: read-out: Agonistic activity of 10 μM test compound. It counts as cell-based. The essentials:
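Rat hepatoma H4-III-E cells were treated overnight with compound, either alone for agonism or together with 0.005 μM dexamethasone for antagonism. TAT activity in lysates was read at 331 nm after reaction at 37 °C. Activity was expressed as % of the dexamethasone response, or as % inhibition of the dexamethasone-induced increase, and scored at a 10% cutoff.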

For the compound `CCOC(=O)CCCNCC(O)(c1cn(Cc2ccccc2)c2cc([N+](=O)[O-])ccc12)C(F)(F)F` (centres unmarked) [Example 169, Ethyl 4-{[2-(1-benzyl-6-nitro-1H-indol-3-yl)-3,3,3-trifluoro-2-hydroxypropyl]-amino}butanoate], at human GRα protein, the inhibition at 0.1 µM is 99%. In the experiment with H4-III-E cells, the “Agonistic activity of 10 μM test compound” value is reported as “◯” and the “Antagonistic activity of 10 μM test compound” value (from here on “Antagonistic activity”) is recorded as “◯”.

For the compound `O=[N+]([O-])c1ccc2c(C(O)(CN3CCC4(CC3)CNc3ccccc3O4)C(F)(F)F)cn(Cc3ccccc3)c2c1` (centres unmarked) [Example 128, 2-(1-Benzyl-6-nitro-1H-indol-3-yl)-3-(3,4-dihydro-1′H-spiro[1,4-benzoxazine-2,4′-piperidin]-1′-yl)-1,1,1-trifluoropropan-2-ol], at human GRα protein, the inhibition at 0.1 µM amounted to 64%. For the same compound, the activation at 10 µM in the experiment on H4-III-E cells was less than 10%.

`C=CCC(O)(c1cn(Cc2ccccc2)c2cc([N+](=O)[O-])ccc12)C(F)(F)F` (centres unmarked) [Example 8, 2-(1-Benzyl-6-nitro-1H-indol-3-yl)-1,1,1-trifluoropent-4-en-2-ol]: the inhibition at 0.1 µM at human GRα protein is 98%. In the experiment on H4-III-E cells, the activation at 10 µM was less than 10% and the “Antagonistic activity” value is recorded as “◯”.

`O=[N+]([O-])c1ccc2c(C(O)(CN3CCN(S(=O)(=O)c4ccccc4)CC3)C(F)(F)F)cn(Cc3ccccc3)c2c1` (centres unmarked) [Example 112, 2-(1-Benzyl-6-nitro-1H-indol-3-yl)-1,1,1-trifluoro-3-[4-(phenylsulfonyl)piperazin-1-yl]propan-2-ol]: on human GRα protein, the inhibition at 0.1 µM was found to be 98%. Further, in the experiment with H4-III-E cells, the activation at 10 µM is less than 10% and the “Antagonistic activity” value is “◯”.

In the case of `CS(=O)(=O)C1CCN(CC(O)(c2cn(Cc3ccccc3)c3cc([N+](=O)[O-])ccc23)C(F)(F)F)CC1` (centres unmarked) [Example 183, 2-(1-Benzyl-6-nitro-1H-indol-3-yl)-1,1,1-trifluoro-3-[4-(methylsulfonyl)piperidin-1-yl]propan-2-ol], on human GRα protein, the inhibition at 0.1 µM is 88%. Further, in the experiment with H4-III-E cells, the “Agonistic activity of 10 μM test compound” value is listed as “◯” and the “Antagonistic activity” value is given as “◯”.

For `O=[N+]([O-])c1ccc2c(C(O)(CN3CCC(O)(Cc4ccccc4)CC3)C(F)(F)F)cn(Cc3ccccc3)c2c1` (centres unmarked) [Example 76, 4-Benzyl-1-[2-(1-benzyl-6-nitro-1H-indol-3-yl)-3,3,3-trifluoro-2-hydroxypropyl]-piperidin-4-ol], the inhibition at 0.1 µM on human GRα protein amounted to 60%. In the experiment on H4-III-E cells, the activation at 10 µM is less than 10% and the “Antagonistic activity” value is “◯”.

Consider `O=[N+]([O-])c1ccc2c(C(O)(CN3CCC(S(=O)(=O)c4ccccc4)CC3)C(F)(F)F)cn(Cc3ccccc3)c2c1` (centres unmarked) [Example 184, 2-(1-Benzyl-6-nitro-1H-indol-3-yl)-1,1,1-trifluoro-3-[4-(phenylsulfonyl)piperidin-1-yl]propan-2-ol], for which, at human GRα protein, the inhibition at 0.1 µM amounted to 97%. Also, in the experiment with H4-III-E cells, the “Agonistic activity of 10 μM test compound” value was “◯” and the “Antagonistic activity” value is reported as “X (the results of less than 10% were expressed as X)”.

With `CCOC(=O)CCc1ccc(OC2CCN(CC(O)(c3cn(Cc4ccccc4)c4cc([N+](=O)[O-])ccc34)C(F)(F)F)CC2)cc1` (centres unmarked) [Example 181, Ethyl 3-[4-({1-[2-(1-benzyl-6-nitro-1H-indol-3-yl)-3,3,3-trifluoro-2-hydroxypropyl]piperidin-4-yl}oxy)phenyl]propanoate], the inhibition at 0.1 µM on human GRα protein amounted to 87%. Also, in the experiment with H4-III-E cells, the “Agonistic activity of 10 μM test compound” value is on record as “◯” and the “Antagonistic activity” value was “◯”.

These data come from patent US20100190768A1, “NOVEL FUSED PYROLE DERIVATIVE” (Dainippon Sumitomo Pharma Co., Ltd., priority 2005, published 2010).
